≈ marks a conversion by molar mass, not a printed value.
The compounds below were run on Mycobacterium tuberculosis (assay: Antitubercular activity against Mycobacterium tuberculosis H37Rv ATCC 27294 incubated up to 7 days measured on day 7 by microplate Alamar Blue assay). Conditions: H37Rv ATCC 27294, 168 h.
Type: functional

Point of comparison: `Clc1ccc(-c2nc(-c3ccccc3)c[nH]2)cc1`, MIC90 59.8 µM (≈ 15.2 µg/mL). Against it:
- COc1ccc(-c2csc(Nc3ccc(C)cc3)n2)cc1 — 3.8-fold lower, 15.6 µM (≈ 4.62 µg/mL)
- Cc1ccc(-c2nc(-c3ccccc3)c[nH]2)cc1 — 2.1-fold higher, 124 µM (≈ 29.1 µg/mL)
- COc1cccc(-c2c[nH]c(-c3ccccc3)n2)c1 — within 1.5-fold, 88.4 µM (≈ 22.1 µg/mL)
- FC(F)(F)c1cccc(-c2c[nH]c(-c3ccccc3)n2)c1 — 1.6-fold lower, 37 µM (≈ 10.7 µg/mL)
- COc1ccc(-c2csc(Nc3cc(Cl)cc(Cl)c3)n2)cc1 — 4.6-fold lower, 13 µM (≈ 4.57 µg/mL)
- c1ccc(-c2c[nH]c(-c3ccncc3)n2)cc1 — higher, > 128 µM
- c1ccc(-c2c[nH]c(-c3ccccc3)n2)cc1 — 2.1-fold higher, 128 µM (≈ 28.1 µg/mL)
- COc1ccccc1-c1nc(-c2ccccc2)c[nH]1 — higher, > 128 µM
- Oc1ccc(-c2nc(-c3ccccc3)c[nH]2)cc1 — higher, > 128 µM
- FC(F)(F)Oc1cccc(-c2nc(-c3ccccc3)c[nH]2)c1 — 1.7-fold lower, 35.5 µM (≈ 10.8 µg/mL)
- COc1cccc(-c2nc(-c3ccccc3)c[nH]2)c1OC — within 1.5-fold, 55.2 µM (≈ 15.5 µg/mL)
- Fc1cc(-c2nc(-c3cccc(C(F)(F)F)c3)c[nH]2)cc(C(F)(F)F)c1 — 10-fold lower, 6 µM (≈ 2.25 µg/mL)
- COc1cc(-c2nc(-c3cccc(C(F)(F)F)c3)c[nH]2)cc(C(F)(F)F)c1 — 8.2-fold lower, 7.3 µM (≈ 2.82 µg/mL)
- FC(F)(F)c1cccc(-c2c[nH]c(-c3cc(C(F)(F)F)cc(C(F)(F)F)c3)n2)c1 — 7.8-fold lower, 7.7 µM (≈ 3.27 µg/mL)
- Cc1[nH]c(-c2cccc(C(F)(F)F)c2)nc1-c1cccc(C(F)(F)F)c1 — 4.3-fold lower, 14 µM (≈ 5.18 µg/mL)
- Cn1cc(-c2cccc(C(F)(F)F)c2)nc1-c1cccc(C(F)(F)F)c1 — 7.6-fold lower, 7.9 µM (≈ 2.93 µg/mL)
- Clc1cccc(-c2c[nH]c(-c3ccccc3)n2)c1 — within 1.5-fold, 60.3 µM (≈ 15.4 µg/mL)
- Clc1ccc(-c2c[nH]c(-c3ccccc3)n2)cc1 — within 1.5-fold, 59.5 µM (≈ 15.2 µg/mL)
- COc1ccc(-c2nc(-c3ccccc3)c[nH]2)cc1 — 2-fold higher, 119 µM (≈ 29.9 µg/mL)
- COc1cccc(-c2nc(-c3ccccc3)c[nH]2)c1 — within 1.5-fold, 73.7 µM (≈ 18.4 µg/mL)
- FC(F)(F)c1cccc(-c2nc(-c3ccccc3)c[nH]2)c1 — 2-fold lower, 30.6 µM (≈ 8.82 µg/mL)
- O=[N+]([O-])c1ccc(-c2c[nH]c(-c3ccccc3)n2)cc1 — higher, > 128 µM
- O=[N+]([O-])c1cccc(-c2nc(-c3ccccc3)c[nH]2)c1 — within 1.5-fold, 60.6 µM (≈ 16.1 µg/mL)
- COc1ccc(-c2c[nH]c(-c3ccccc3)n2)cc1 — within 1.5-fold, 82.4 µM (≈ 20.6 µg/mL)
- FC(F)(F)c1ccc(-c2c[nH]c(-c3ccccc3)n2)cc1 — higher, > 128 µM
- FC(F)(F)c1cccc(-c2c[nH]c(-c3ccc(Cl)cc3)n2)c1 — 2-fold lower, 29.8 µM (≈ 9.62 µg/mL)
- Clc1cccc(-c2nc(-c3ccccc3)c[nH]2)c1 — within 1.5-fold, 60.4 µM (≈ 15.4 µg/mL)
- c1ccc(-c2c[nH]c(-c3ccsc3)n2)cc1 — 1.8-fold higher, 107 µM (≈ 24.3 µg/mL)
- FC(F)(F)c1ccc(-c2nc(-c3ccccc3)c[nH]2)cc1 — within 1.5-fold, 48.9 µM (≈ 14.1 µg/mL)
- FC(F)(F)c1cccc(-c2c[nH]c(-c3cccc(C(F)(F)F)c3)n2)c1 — 35-fold lower, 1.7 µM (≈ 0.606 µg/mL)
- c1ccc(-c2c[nH]c(C3CCCCC3)n2)cc1 — 2.1-fold higher, 125 µM (≈ 28.2 µg/mL)
- NNC(=O)c1ccncc1 [ISONIAZID] — 600-fold lower, 0.1 µM (≈ 0.0137 µg/mL)
- CO[C@H]1/C=C/O[C@@]2(C)Oc3c(C)c(O)c4c(O)c(c(/C=N/N5CCN(C)CC5)c(O)c4c3C2=O)NC(=O)/C(C)=C\C=C\[C@H](C)[C@H](O)[C@@H](C)[C@@H](O)[C@@H](C)[C@H](OC(C)=O)[C@@H]1C [RIFAMPIN] — 1200-fold lower, 0.05 µM (≈ 0.0411 µg/mL)

Each compound was assayed on Mycobacterium tuberculosis (assay: Antitubercular activity against recombinant Mycobacterium tuberculosis H37Rv expressing Vibrio harveyii luciferase gene with acetamidase promoter assessed as prevention of metabolic recovery incubated for 10 days in anaerobic environment followed by 28 hrs recovery in aerobic environment by low-oxygen recovery assay). Conditions: not given.
Type: functional

Point of comparison: `FC(F)(F)c1cccc(-c2c[nH]c(-c3cccc(C(F)(F)F)c3)n2)c1`, MIC90 25.4 µM. Against it:
- Fc1cc(-c2nc(-c3cccc(C(F)(F)F)c3)c[nH]2)cc(C(F)(F)F)c1 — within 1.5-fold, 17.6 µM
- COc1cc(-c2nc(-c3cccc(C(F)(F)F)c3)c[nH]2)cc(C(F)(F)F)c1 — 2.5-fold higher, 63.7 µM
- FC(F)(F)c1cccc(-c2c[nH]c(-c3cc(C(F)(F)F)cc(C(F)(F)F)c3)n2)c1 — 2.2-fold lower, 11.3 µM
- Cn1cc(-c2cccc(C(F)(F)F)c2)nc1-c1cccc(C(F)(F)F)c1 — 2-fold higher, 50.7 µM

Reference: ChEMBL document CHEMBL3593216, “Discovery of antitubercular 2,4-diphenyl-1H-imidazoles from chemical library repositioning and rational design” (2015)
